Patent publication US20090062243A1, “Lupane-Type Triterpenoids Modified at 30-Position and Analogues Thereof” (ADVANCED LIFE SCIENCES, INC., priority 2007, published 2009)

How the values were obtained:
Type in all cases: cell-based
[1] = system: SK-MEL-2 (melanoma); assay: MTS cell viability assay, SK-MEL-2
Description: (§1) Cells were plated, the evening before treatment, for each treatment on 96-well plates (1×10^4 cells/well) in 100 μL volume per well. Analog solutions were prepared by diluting each test compound in DSMO (10 mM) with the appropriate cell growth media for each individual cell line, or in “Universal Media” if several cell lines were to be assayed in parallel, immediately prior to cell treatment. Universal Media consisted of 5 mL sodium pyruvate (100× liquid stock, MediaTech), 5 mL glucose (100×, 45% liquid stock, MediaTech), 5 mL Penicillin/Streptomycin (100× liquid stock, MediaTech), 10 mL sodium bicarbonate (50× liquid stock, MediaTech), 25 mL Fetal Calf Serum, 1.25 mL insulin (4 mg/mL, Gibco) and […] RPMI media with 2 mM L-glutamine for a total volume of 500 mL.
(§2) Cells were treated by aspirating plating media from each well and adding 80 μL of betulinic acid (control) or each analog solution in serial dilutions to the adherent cells. All treatments were performed in triplicate. Growth media (80 μL) was added to 3 blank wells (no cells) to measure background from the growth media. Growth media alone (no DMSO or test compound) was added to 3 wells containing cells to measure the baseline MTS activity. Vehicle (DMSO) control in serial dilutions, added to cells, was also included to monitor basal toxicity from DMSO. Cells were incubated at 37° C. for 72 h, or 120 h for the OVCAR cell lines. MTS reagent (per 96-well plate) were prepared by combining 2 mL of MTS working solution (Cell Titer AQueous Non-Radioactive Cell Proliferation Assay, Promega, cat#G1112), 100 μL of 0.92 mg/mL phenazine methosulfate/Dulbecco's PBS and 2.1 mL growth media. MTS reagent (40 μL) were added to each well and incubated at 37° C. for 1.5 to 4 h. Plates were gently shaken by hand until solution in each well appeared homogenous. Absorbances at 490 nm were measured on a Wallac Victor II plate reader at multiple time points following the addition of MTS reagent for each plate. Triplicate absorbance (490 nm) measurements were averaged following background (no cell) subtraction for each drug concentration. Percent Cell Viability was calculated for each drug concentration using the following equation:
(§3) {[Absorbance(analog treated)]/[Absorbance(DMSO treated)]}×100%
(§4) Cytotoxicity dose response for the triterpenoid derivatives synthesized in SK-MEL-2 (melanoma), A-375 (melanoma), Daoy (glioblastoma), LN-229 (glioblastoma), OVCAR-3 (ovarian carcinoma), HT-29 (colon carcinoma), MCF-7 (breast carcinoma) cell lines using the standard MTS assay is summarized in Table 1. In Table 1, compounds 22a-d and compounds 23a-c refer to structures 22 and 23 in Scheme 5, respectively. Compounds 24aa-an and 24ba-bq refer to structure 24 in Scheme 6. Compounds 26a-e refer to structure 26 in Scheme 6. Compounds 36a-c refer to structure 36 in Scheme 10.

[2] = system: A-375 (melanoma); assay: MTS cell viability assay, A-375
Description: as §1, §2, §3, §4

[3] = system: Daoy; assay: MTS cell viability assay, Daoy; conditions: cells incubated 72 h
Description: as §1, §2, §3, §4

[4] = system: LN-229 (glioblastoma); assay: MTS cell viability assay, LN-229
Description: as §1, §2, §3, §4

[5] = system: OVCAR-3 (ovarian carcinoma); assay: MTS cell viability assay, OVCAR-3
Description: as §1, §2, §3, §4

[6] = system: HT-29 (colon carcinoma); assay: MTS cell viability assay, HT-29
Description: as §1, §2, §3, §4

[7] = system: MCF-7 (breast carcinoma); assay: MTS cell viability assay, MCF-7
Description: as §1, §2, §3, §4

[8] = system: CEM; assay: MTS cell viability assay, CEM; conditions: Homo sapiens, CCRF-CEM, cells incubated 72 h
Description: as §1, §2, §3

[9] = system: H-146; assay: MTS cell viability assay, H-146; conditions: Homo sapiens, NCI-H146, cells incubated 72 h
Description: as §1, §2, §3

[10] = Homo sapiens, SK-MEL-2, cells incubated 72 h
[11] = Homo sapiens, A-375, cells incubated 72 h
[12] = Homo sapiens, LN-229, cells incubated 72 h
[13] = Homo sapiens, OVCAR-3, 120 h for the OVCAR cell lines
[14] = Homo sapiens, HT-29, cells incubated 72 h
[15] = Homo sapiens, MCF7, cells incubated 72 h

SMILES	IC50 [1, 10] [µM]	IC50 [2, 11] [µM]	IC50 ([3]; Homo sapiens, Daoy) [µM]	IC50 [4, 12] [µM]	IC50 [5, 13] [µM]	IC50 [6, 14] [µM]	IC50 [7, 15] [µM]	IC50 ([1]; cells incubated 72 h) [µM]	IC50 ([2]; cells incubated 72 h) [µM]	IC50 [3] [µM]	IC50 ([4]; cells incubated 72 h) [µM]	IC50 ([5]; 120 h for the OVCAR cell lines) [µM]	IC50 ([6]; cells incubated 72 h) [µM]	IC50 ([7]; cells incubated 72 h) [µM]	IC50 [8] [µM]	IC50 [9] [µM]
C=C(CO)[C@@H]1CC[C@]2(COC3CCCCO3)CC[C@]3(C)[C@H](CC[C@@H]4[C@@]5(C)CCC(NCCc6ccc(O)c(O)c6)C(C)(C)[C@@H]5CC[C@]43C)[C@@H]12 (stereo partly drawn) [Compound 24ai]	5	14	6	16	4	26	16									
C=C(CO)[C@@H]1CC[C@]2(CO)CC[C@]3(C)[C@H](CC[C@@H]4[C@@]5(C)CCC(NCCc6ccc(O)cc6)C(C)(C)[C@@H]5CC[C@]43C)[C@@H]12 (stereo partly drawn) [Compound 24ag]								12	17	16	17	5	26	28		
C=C(CO)[C@@H]1CC[C@]2(COC3CCCCO3)CC[C@]3(C)[C@H](CC[C@@H]4[C@@]5(C)CCC(NCCO)C(C)(C)[C@@H]5CC[C@]43C)[C@@H]12 (stereo partly drawn) [Compound 24ac]	15	13	15	11	7	60	36									
C=C(CO)[C@@H]1CC[C@]2(COC3CCCCO3)CC[C@]3(C)[C@H](CC[C@@H]4[C@@]5(C)CCC(N)C(C)(C)[C@@H]5CC[C@]43C)[C@@H]12 (stereo partly drawn) [Compound 24aa]	5	0.89	4	4	15	12	6									
C=C(C=O)[C@@H]1CC[C@]2(CO)CC[C@]3(C)[C@H](CC[C@@H]4[C@@]5(C)C=CC(=O)C(C)(C)[C@@H]5CC[C@]43C)[C@@H]12 [Compound 35]	14	6	17	58	6	8	32								2	5
C=C(CO)[C@@H]1CC[C@]2(COC3CCCCO3)CC[C@]3(C)[C@H](CC[C@@H]4[C@@]5(C)CCC(NCCOC)C(C)(C)[C@@H]5CC[C@]43C)[C@@H]12 (stereo partly drawn) [Compound 24ae]	34	6	28	17	17	19	16									
C=C(CO)[C@@H]1CC[C@]2(CO)CC[C@]3(C)[C@H](CC[C@@H]4[C@@]5(C)CCC(NCCNC(=O)OC(C)(C)C)C(C)(C)[C@@H]5CC[C@]43C)[C@@H]12 (stereo partly drawn) [Compound 24am]								16	17	16	17	2.5	> 75	35		
C=C(C)[C@@H]1CC[C@]2(COC3CCCCO3)CC[C@]3(C)[C@H](CC[C@@H]4[C@@]5(C)C=C(C=O)C(=O)C(C)(C)[C@@H]5CC[C@]43C)[C@@H]12 (stereo partly drawn) [Compound 32]	< 2	6	< 2	2	6	6	6									
C=C(C=O)[C@@H]1CC[C@]2(CO)CC[C@]3(C)[C@H](CC[C@@H]4[C@@]5(C)CCC(=O)C(C)(C)[C@@H]5CC[C@]43C)[C@@H]12 [Compound 9b]	16	18	16	20	6	52	56									
C=C(C=O)[C@@H]1CC[C@]2(COC3CCCCO3)CC[C@]3(C)[C@H](CC[C@@H]4[C@@]5(C)CCC(=O)C(C)(C)[C@@H]5CC[C@]43C)[C@@H]12 (stereo partly drawn) [Compound 9a]	7	< 3	7		9	9	32									
C=C(CO)[C@@H]1CC[C@]2(CO)CC[C@]3(C)[C@H](CC[C@@H]4[C@@]5(C)CCC(NCCO)C(C)(C)[C@@H]5CC[C@]43C)[C@@H]12 (stereo partly drawn) [Compound 24ad]	34	16	29	37	39	65	41									
C=C(COS(C)(=O)=O)[C@@H]1CC[C@]2(CO)CC[C@]3(C)[C@H](CC[C@@H]4[C@@]5(C)CCC(=O)C(C)(C)[C@@H]5CC[C@]43C)[C@@H]12 [Compound 21b]	> 75	21	> 75	46	> 75	17	54									
C=C(CO)[C@@H]1CC[C@]2(COC3CCCCO3)CC[C@]3(C)[C@H](CC[C@@H]4[C@@]5(C)C=CC(=O)C(C)(C)[C@@H]5CC[C@]43C)[C@@H]12 (stereo partly drawn) [Compound 28]	19	18	16		30	19	5									
C=C(CO)[C@@H]1CC[C@]2(CO)CC[C@]3(C)[C@H](CC[C@@H]4[C@@]5(C)CCC(NCCc6ccc(O)c(O)c6)C(C)(C)[C@@H]5CC[C@]43C)[C@@H]12 (stereo partly drawn) [Compound 24aj]	24	6	34	17	18	37	31									
C=C(C(OC)OC)[C@@H]1CC[C@]2(CO)CC[C@]3(C)[C@H](CC[C@@H]4[C@@]5(C)CCC(=O)C(C)(C)[C@@H]5CC[C@]43C)[C@@H]12 [Compound 10]	17	7	17	24	45	15	17									
C=C(CNCCO)[C@@H]1CC[C@]2(CO)CC[C@]3(C)[C@H](CC[C@@H]4[C@@]5(C)CCC(NCCOC)C(C)(C)[C@@H]5CC[C@]43C)[C@@H]12 (stereo partly drawn) [Compound 24bc]								8	4	5	28		2	11		
C=C(CNCCO)[C@@H]1CC[C@]2(CO)CC[C@]3(C)[C@H](CC[C@@H]4[C@@]5(C)CCC(=O)C(C)(C)[C@@H]5CC[C@]43C)[C@@H]12 [Compound 22b]	45	10	47	16	67	45	47									
C=C(C=O)[C@@H]1CC[C@]2(COC(C)=O)CC[C@]3(C)[C@H](CC[C@@H]4[C@@]5(C)CCC(=O)C(C)(C)[C@@H]5CC[C@]43C)[C@@H]12 [Compound 14a]	12	16	7	9	4	46	56									
C=C(CNCCO)[C@@H]1CC[C@]2(CO)CC[C@]3(C)[C@H](CC[C@@H]4[C@@]5(C)CCC(NCCO)C(C)(C)[C@@H]5CC[C@]43C)[C@@H]12 (stereo partly drawn) [Compound 24bh]								7	6	13	16		2	6		
C=C(CO)[C@@H]1CC[C@]2(CO)CC[C@]3(C)[C@H](CC[C@@H]4[C@@]5(C)CCC(NCCOC)C(C)(C)[C@@H]5CC[C@]43C)[C@@H]12 (stereo partly drawn) [Compound 24af]								38	18	34	38	40	47	40		
C=C(CO)[C@@H]1CC[C@]2(COC3CCCCO3)CC[C@]3(C)[C@H](CC[C@@H]4[C@@]5(C)CCC(=O)C(C)(C)[C@@H]5CC[C@]43C)[C@@H]12 (stereo partly drawn) [Compound 5]	34		35	46	48	75	37									
